# Source: patent publication EP4790066A1, “GLP-1R/GIPR/GCGR TRIPLE AGONIST ANALOGUE AND USE THEREOF” (Shenzhen Bay Laboratory, priority 2023, dated 2025)
# Like-named read-outs stand apart in the source and are kept apart here. *1 amine or outer side, *2 acyl side, *3 side chain or, on linkers, in order; H or OH if unused. Where a SMILES comes first, the peptide text is derived from it. Bridges are numbered along the chain shown (N, C = ends). [ ]: non-standard residue; d: D form. X1 = O=C(O)CCCCCCCCCCCCCCCCCCC(=O)N[C@@H](CCCCNC(=O)COCCOCCNC(=O)COCCOCCNC(=O)CCC(=O)N(CCNC(=O)C[*:1])CCNC(=O)C[*:2])C(=O)O; Phe(2-F) = N[C@@H](Cc1ccccc1F)C(=O)O; Iva = CC[C@](C)(N)C(=O)O; Aib = CC(C)(N)C(=O)O
# What was measured:
# GCGR = biological target: T1, GCGR (Homo sapiens, UniProt P47871); assay: cAMP method (HTRF cAMP detection kit), HEK293/pGM-CREB-L-Luc/GCG pool; type: cell-based; details: read-out: EC50 (pM) for each receptor GCGR
# T1 construct: expressed in transfected cells
# T1 sequence (P47871 26-477, species assumed): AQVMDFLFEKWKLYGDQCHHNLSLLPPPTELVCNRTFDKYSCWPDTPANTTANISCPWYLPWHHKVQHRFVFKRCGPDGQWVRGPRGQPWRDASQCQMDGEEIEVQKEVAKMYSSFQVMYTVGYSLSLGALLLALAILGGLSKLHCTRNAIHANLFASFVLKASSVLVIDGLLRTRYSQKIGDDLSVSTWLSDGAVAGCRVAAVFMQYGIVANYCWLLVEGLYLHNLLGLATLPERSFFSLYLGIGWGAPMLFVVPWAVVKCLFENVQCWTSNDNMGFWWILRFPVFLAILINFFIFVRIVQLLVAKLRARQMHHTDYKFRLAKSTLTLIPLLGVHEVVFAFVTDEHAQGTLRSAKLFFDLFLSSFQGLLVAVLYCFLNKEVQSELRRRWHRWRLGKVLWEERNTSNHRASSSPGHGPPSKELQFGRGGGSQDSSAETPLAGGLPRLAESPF
# in vivo [1] = assay: in vivo; parameters: species or system male SD rats; details: rat
# Protocol: The pharmacokinetic behavior of target peptide derivatives (or polypeptide derivatives) prepared in Example 1 and Example 2, i.e., TG1-TG94 in rodents was tested. The specific steps are as follows:
# The target peptide derivatives (TG1-TG94) to be tested were administered to male SD rats via subcutaneous injection (SC, 3 mg/kg; drug vehicle: PBS, concentration: 1.5 mg/mL; administration volume: 2 mL) and intravenous injection (IV, 1 mg/kg; drug vehicle: PBS, concentration: 0.5 mg/mL; administration volume: 2 mL) as a single dose, respectively. Whole blood samples were collected from the jugular vein or other appropriate vein at the following time points after administration: for SC, 15 min, 30 min, 1 h, 2 h, 4 h, 6 h, 8 h, 24 h, 48 h, 72 h, 96 h, 120 h, and 168 h; for IV, 5 min, 15 min, 30 min, 1 h, 2 h, 4 h, 8 h, 24 h, 48 h, 72 h, 96 h, 120 h, and 168 h. 0.2 mL of blood was collected and transferred into a labeled EDTA-K2 anticoagulant tube. The tube was gently inverted to ensure thorough mixing of the anticoagulant (EDTA-K2) with the blood and immediately placed on wet ice. Plasma separation was performed as soon as possible by centrifugation under the following conditions: 4°C, 6800xg, for 6 min. The plasma samples were stored in a refrigerator at no higher than -20°C and used for analysis when needed.
# Under the condition of yellow light in an ice-water bath, except for blank samples, 300 µL of precipitant containing an internal standard was added to a 96-well plate containing 20 µL of standard curve sample, quality control sample, or unknown sample; 300 µL of acetonitrile was added to the blank sample. The mixture was vortexed, mixed well, and then centrifuged. 150 µL of the supernatant after centrifugation was transferred to a new 96-well plate, and 150 µL of ultrapure water was added and mixed well. The above samples were subjected to quantitative analysis using LC-MS analysis with XB-C18 (2.1 * 100 mm, 3 µm) chromatography for gradient elution. The mobile phases used were: mobile phase A = 0.1% formic acid-water; mobile phase B = acetonitrile. Phoenix WinNonlin software was used to calculate the pharmacokinetic parameters. […] Table 5A: Pharmacokinetic parameters of target peptide derivatives
# in vivo [2] = assay: in vivo; parameters: species or system adult male cynomolgus monkeys; details: male, cynomolgus monkey, 0.2 mg/kg
# Protocol: The pharmacokinetic behavior of TG52 in non-rodents was tested. The specific steps are as follows:
# The target peptide derivative TG52 to be tested was administered to adult male cynomolgus monkeys via subcutaneous and intravenous injections (0.2 mg/kg, with PBS as the drug vehicle) as a single dose, respectively. Whole blood samples were collected from the jugular vein or other appropriate vein at the following time points after administration: for SC, 0 min, 30 min, 1 h, 3 h, 7 h, 24 h, 48 h, 72 h, 120 h, 168 h, 216 h, and 264 h; for IV, 0 min, 5 min, 30 min, 1 h, 3 h, 7 h, 24 h, 48 h, 72 h, 120 h, 168 h, 216 h, and 264 h. 0.2 mL of blood was collected and transferred into a labeled EDTA-K2 anticoagulant tube. The tube was gently inverted to ensure thorough mixing of the anticoagulant (EDTA-K2) with the blood and immediately placed on wet ice. Plasma separation was performed as soon as possible by centrifugation under the following conditions: 4°C, 6800xg, for 6 min. The plasma samples were stored in a refrigerator at no higher than -20°C and used for analysis when needed. Analysis of the drug content in the blood samples was performed using the analytical method described above. Table 5C: Pharmacokinetic parameters of TG52 in cynomolgus monkeys
# GLP-1R = biological target: T2, GLP-1R (Homo sapiens, UniProt P43220); assay: cell-based; type: cell-based; details: for EC50: GLP-1R CreLuc
# T2 construct: expressed in transfected cells
# T2 sequence (P43220 24-463, species assumed): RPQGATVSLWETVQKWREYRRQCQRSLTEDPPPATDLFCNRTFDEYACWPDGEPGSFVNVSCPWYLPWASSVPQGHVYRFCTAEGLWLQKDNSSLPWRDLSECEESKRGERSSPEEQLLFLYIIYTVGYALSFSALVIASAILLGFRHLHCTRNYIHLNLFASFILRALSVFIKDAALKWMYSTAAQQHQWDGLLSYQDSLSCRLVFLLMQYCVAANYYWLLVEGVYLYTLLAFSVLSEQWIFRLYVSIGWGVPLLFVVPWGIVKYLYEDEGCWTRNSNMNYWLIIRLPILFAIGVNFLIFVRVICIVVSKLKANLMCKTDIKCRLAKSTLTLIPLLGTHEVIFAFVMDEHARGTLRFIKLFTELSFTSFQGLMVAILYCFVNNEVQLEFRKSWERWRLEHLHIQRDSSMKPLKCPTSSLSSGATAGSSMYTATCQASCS
# Protocol: The steps are as follows:
# The stably transfected cell line HEK293/pGM-CREB-L-Luc/GLP-1R pool was constructed. […] The corresponding test cells were selected, digested (for 1 min), dispersed by pipetting, and centrifuged (1000 rpm, 5 min). The culture medium was discarded, and the cells were suspended using Freestyle culture medium, centrifuged and counted. The cells were diluted to a cell density of 5 x 10^5 cells/mL using freestyle culture medium (0% FBS) and culture medium containing 10% FBS, respectively. The cells were then added to the detection wells of a 384-well plate (40 µL/20,000 cells/well). Echo was used to add the corresponding analyte dilution series. The cell plate was incubated at 37°C and 5% CO2 for 6 h, and then ONE-GLO (20 µL/well) was added for detection. It was kept in the dark for 3 min, and then a chemiluminescent microplate reader was used for determination. The plate was read within 30 min, and the determination results were recorded. […]
smiles,measurement,setting,value
CC[C@H](C)[C@@H]1NC(=O)[C@H](Cc2ccccc2)NC(=O)[C@@H](NC(=O)C(C)(C)NC(=O)[C@H](CCC(N)=O)NC(=O)[C@H](C)NC(=O)[C@H](CCCCNC(C)=O)NC(=O)[C@H](CCCCN)NC(=O)[C@H](CC(=O)O)NC(=O)[C@H](CC(C)C)NC(=O)[C@](C)(CC)NC(=O)[C@@H](NC(=O)[C@H](CO)NC(=O)[C@H](Cc2ccc(O)cc2)NC(=O)[C@H](CC(=O)O)NC(=O)[C@H](CO)NC(=O)[C@@H](NC(=O)[C@H](Cc2ccccc2F)NC(=O)[C@@H](NC(=O)CNC(=O)[C@H](CCC(N)=O)NC(=O)C(C)(C)NC(=O)[C@@H](N)Cc2ccc(O)cc2)[C@@H](C)O)[C@@H](C)O)[C@@H](C)CC)CSCC(=O)NCCN(C(=O)CCC(=O)NCCOCCOCC(=O)NCCOCCOCC(=O)NCCCC[C@H](NC(=O)CCCCCCCCCCCCCCCCCCC(=O)O)C(=O)O)CCNC(=O)CSC[C@@H](C(=O)NCC(=O)NCC(=O)N2CCC[C@H]2C(=O)N[C@@H](CO)C(=O)N[C@@H](CO)C(=O)NCC(=O)N[C@@H](C)C(=O)N2CCC[C@H]2C(=O)N2CCC[C@H]2C(=O)N2CCC[C@H]2C(=O)N[C@@H](CO)C(N)=O)NC(=O)[C@H](CC(C)C)NC(=O)[C@H](CC(C)C)NC(=O)[C@H](Cc2ccc(O)cc2)NC(=O)[C@H](CCC(=O)O)NC1=O [TG52] (H-Y[Aib]QGT[Phe(2-F)]TSDYSI[Iva]LDKK(Ac)AQ[Aib]CFIEYLLCGGPSSGAPPPS-NH2; linker 21-28 via X1),EC50,GCGR,8.8 pM
same,AUC(0-inf),"in vivo [1]; male, SD, iv, 1 mg/kg",289 µg·h/mL
same,AUC(0-t),"in vivo [1]; male, SD, iv, 1 mg/kg",265 µg·h/mL
same,MRT,"in vivo [1]; male, SD, iv, 1 mg/kg",26.5 h
same,Vd,"in vivo [1]; male, SD, iv, 1 mg/kg",0.092 L/kg
same,clearance,"in vivo [1]; male, SD, iv, 1 mg/kg",3.48 mL/h/kg
same,half-life,"in vivo [1]; male, SD, iv, 1 mg/kg",21.5 h
same,bioavailability,"in vivo [1]; male, SD, sc",50.9%
same,AUC(0-inf),"in vivo [1]; male, SD, sc, 3 mg/kg",570 µg·h/mL
same,AUC(0-t),"in vivo [1]; male, SD, sc, 3 mg/kg",410 µg·h/mL
same,CL/F,"in vivo [1]; male, SD, sc, 3 mg/kg",5.26 mL/h/kg
same,Cmax,"in vivo [1]; male, SD, sc, 3 mg/kg",8210 ng/mL
same,MRT,"in vivo [1]; male, SD, sc, 3 mg/kg",42.8 h
same,Tmax,"in vivo [1]; male, SD, sc, 3 mg/kg",24 h
same,half-life,"in vivo [1]; male, SD, sc, 3 mg/kg",26.4 h
same,AUC0-t /AUC0-inf,"in vivo [1]; iv, 1 mg/kg",0.918
same,Kel,"in vivo [1]; iv, 1 mg/kg",0.0323 h⁻¹
same,AUC0-t /AUC0-inf,"in vivo [1]; sc, 3 mg/kg",0.834
same,Vz/F,"in vivo [1]; sc, 3 mg/kg",0.200 L/kg
same,AUC(0-inf),in vivo [2]; iv,302 µg·h/mL
same,AUC(0-t),in vivo [2]; iv,278 µg·h/mL
same,Vd,in vivo [2]; iv,0.0626 L/kg
same,clearance,in vivo [2]; iv,0.666 mL/h/kg
same,half-life,in vivo [2]; iv,88.3 h
same,AUC(0-t),in vivo [2]; sc,199 µg·h/mL
same,Cmax,in vivo [2]; sc,1760 ng/mL
same,Tmax,in vivo [2]; sc,18.3 h
same,bioavailability,in vivo [2]; sc,75.7%
same,half-life,in vivo [2]; sc,97.2 h
same,serum albumin binding capacity,GLP-1R,a stronger serum albumin binding capacity
same,EC50,"GLP-1R; EC50 (pM) 10% FBS, 10% FBS",861 pM
same,EC50,"GLP-1R; 0% FBS, read-out: EC50 (pM) 0% FBS",13.1 pM
